Data from the NIST ThermoML archive (doi:10.1021/je200215d).
Numbers after ± are expanded uncertainties. One block for each compound: values may come before it.

Tests used:
[1] = for surface tension liquid-gas / mass density: 298.15 K; for surface tension liquid-gas: Maximal bubble pressure; for mass density: 101.33 kPa, Vibrating tube method; for mass density / vapor or sublimation pressure: Liquid; for vapor or sublimation pressure: Ebulliometric method (Recirculating still)
[2] = refractive index (Na D-line) (dimensionless); details: 298.15 K; 101.33 kPa; Liquid; Standard Abbe refractometry
[3] = xn = mol fraction of the nth substance listed; details: 303.15 K, Maximal bubble pressure

surface tension liquid-gas [1]: 22 ± 0.23 mN/m | mass density [1]: 765.8 ± 0.18 kg/m3 | vapor or sublimation pressure ([1]; 359.52 K): 101.33 ± 0.21 kPa | refractive index [2]: 1.38712 ± 0.00072
SMILES: CCC(C)(C)OC [2-methoxy-2-methylbutane]

surface tension liquid-gas ([3]; x2 = 0): 22 ± 0.26 mN/m | surface tension liquid-gas ([3]; x2 = 0.04): 21.97 ± 0.26 mN/m | surface tension liquid-gas ([3]; x2 = 0.071): 21.95 ± 0.26 mN/m | surface tension liquid-gas ([3]; x2 = 0.137): 21.93 ± 0.26 mN/m | surface tension liquid-gas ([3]; x2 = 0.198): 21.9 ± 0.26 mN/m | surface tension liquid-gas ([3]; x2 = 0.252): 21.88 ± 0.26 mN/m | surface tension liquid-gas ([3]; x2 = 0.303): 21.86 ± 0.26 mN/m | surface tension liquid-gas ([3]; x2 = 0.41): 21.84 ± 0.26 mN/m | surface tension liquid-gas ([3]; x2 = 0.508): 21.81 ± 0.26 mN/m | surface tension liquid-gas ([3]; x2 = 0.611): 21.78 ± 0.26 mN/m | surface tension liquid-gas ([3]; x2 = 0.708): 21.76 ± 0.26 mN/m | surface tension liquid-gas ([3]; x2 = 0.803): 21.73 ± 0.26 mN/m | surface tension liquid-gas ([3]; x2 = 0.898): 21.71 ± 0.26 mN/m
SMILES: CCC(C)(C)OC [2-methoxy-2-methylbutane] + CCO

surface tension liquid-gas [1]: 21.7 ± 0.23 mN/m | mass density [1]: 785.05 ± 0.16 kg/m3 | vapor or sublimation pressure ([1]; 351.45 K): 101.33 ± 0.21 kPa | refractive index [2]: 1.36068 ± 0.00072
SMILES: CCO [ethanol]

surface tension liquid-gas ([3]; x1 = 1): 21.7 ± 0.26 mN/m
SMILES: CCO [ethanol] + CCC(C)(C)OC
